How the values were obtained:
TIGR4 strain = assay: Attachment of TIGR4 strain to ganglioside-coated ELISA plates, short-term incubation; assay type: binding, S. pneumoniae
Description: The ability of the TIGR4, and its nanA and nanB mutants to bind to specific gangliosides is measured. The gangliosides used include mixed gangliosides, asialo-GM1, GM1, GD1a, GD1b, GT1 (Calbiochem) and the GM3 ganglioside (Sigma). The GM3 ganglioside lacks the terminal or internal GalNAcβ1-4Gal sequence involved in pneumococcal binding and is used as a negative control. These mixed, mono-, di- or tri-sialic acid containing gangliosides bind readily to ELISA plates. […] Using ganglioside-coated plates, the ability to attach to these plates by wildtype TIGR4 strain, the stable opaque and transparent phase variants of the TIGR4 strain, the nanA, nanB, and nanA/nanB mutant strains is compared. These analyses include short-term incubation (1 hr) and extended incubations (24 hrs) on ganglioside-coated plates. Attached pneumococci are removed from the ganglioside plates by short incubation (10-15 min.) in Todd Hewitt medium containing 0.5% yeast extract followed by repeated pipetting and plating the released bacteria on blood agar plates. Alternatively 41° C. Todd Hewitt broth agar containing 0.5% yeast extract is poured on top of the attached pneumococci and the colonies are counted through the bottom of the plate. Controls include plates with no pneumococci and plates with no gangliosides but with pneumococci.

[1] = tested on: S. pneumoniae strain EF3030; assay: GLS preincubation of S. pneumoniae strain EF3030 before nasal application; CFU in tissues; assay type: in vivo; conditions: EF3030 preincubated with GLS, xid mice, four days after nasal application
Description: Aliquots (3×10^7 CFUs) of S. pneumoniae were incubated for 30 minutes with 20 μg asialo-GM1 (a-GM1) or 125 μg of mixed GLSs (MG) prior to nasal application. The ON/E, OBs, brain and NW, NALT and lungs were collected four days later and analyzed for numbers of S. pneumoniae. The 0 value on the Y-axis represents the absence of detectable CFUs. Indicated are the mean+one SE of 5 mice and the P-values were obtained following statistical analysis. The data are representative of two separate experiments.
The blood was collected into a heparinized capillary tube from the retroorbital plexus. Mice were disinfected with 70% ethanol prior to collection of nasal wash (NW), kidney, spleen, and lungs. […]
Eight serial, three-fold dilutions were made of tissues and body fluids in sterile Ringer's solution and plated on blood agar plates containing 4 μg/ml of gentamicin sulfate. […] The results were expressed as CFUs/organ, per NW or per ml of blood.
To block GLS binding sites, 3×10^7 CFU of S. pneumoniae strain EF3030 were incubated for 30 min on ice with either 20 μg asialo-GM1 from human brain or 125 μg of mixed GLSs (18% GM1, 55% GD1a, 15% GD1b, 10% GT1b, 2% other GLSs) from bovine brain (Calbiochem-Novabiochem Corporation, Inc., La Jolla, Calif.). […] Tissues were analyzed for CFUs four days later.

[2] = GM1-binding peptide; cited from earlier work

Substance	binding of pneumococci to coated plates (TIGR4 strain)	reduction of colonization in CNS ([1]; CNS tissue) [fold]	reduction of colonization in lungs ([1]; lungs) [fold]	IC50 [2] [nM]
GM1	not			
asialo-GM1	bind and attachment	25	63	
GM3 [GM-3]	not			
VWRLLAPPFSNRLLP				1000
